In patent publication US11535621B2, “Heterobicyclic amides as inhibitors of CD38” (Ribon Therapeutics, Inc., priority 2019, dated 2022) one finds IC50 data, which are given here for 13 molecules.

Structures are written as SMILES. pIC50: −log10 of the molar value.

One may read the pIC50 as −log10 of the IC50, conventionally taken in molar units. Higher therefore signals a low IC50.

Human CD38, sequence (P28907 whole entry): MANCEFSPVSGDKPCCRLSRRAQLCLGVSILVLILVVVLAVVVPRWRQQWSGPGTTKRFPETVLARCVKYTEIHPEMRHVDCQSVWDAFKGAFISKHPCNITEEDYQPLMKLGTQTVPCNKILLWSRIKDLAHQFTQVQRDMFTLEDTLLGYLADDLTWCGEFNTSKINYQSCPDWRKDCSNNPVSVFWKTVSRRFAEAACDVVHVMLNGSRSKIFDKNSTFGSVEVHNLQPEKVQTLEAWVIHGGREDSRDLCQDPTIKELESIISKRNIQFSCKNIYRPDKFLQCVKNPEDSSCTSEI

The test addresses Human CD38 (Homo sapiens (Human), UniProt P28907). As to the kind of experiment: CD38 enzyme assay. The note with it: 2 nM CD38, NAD+ substrate, absorbance at 405 nm. The test is classed as biochemical. In a few lines:
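IC50 values come from fitting % inhibition against compound concentration with a 4-parameter logistic, or a 3-parameter fit with top/bottom fixed at 100/0 or Hill at 1. Inhibition is scaled between DMSO wells and positive-control wells treated with a quinolinone CD38 inhibitor.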
Consider `O=C(N[C@H]1CC[C@H](NCC(F)(F)F)CC1)c1nc(-n2ccnc2)cc2cn[nH]c12` [Example 115, 5-(1H-imidazol-1-yl)-N-((1r,4r)-4-((2,2,2-trifluoroethyl)amino)cyclohexyl)-1H-pyrazolo[3,4-c]pyridine-7-carboxamide], for which the pIC50 was 7.00 to 8.00.
`O=C(N[C@H]1CC[C@@H](NCC(F)(F)F)CC1)c1nc(-n2ccnc2)cc2cn[nH]c12` [Example 116, 5-(1H-imidazol-1-yl)-N-((1s,4s)-4-((2,2,2-trifluoroethyl)amino)cyclohexyl)-1H-pyrazolo[3,4-c]pyridine-7-carboxamide] gave a pIC50 of 7.00 to 8.00.
Molecule `Cc1nc2nc(-n3ccnc3)nc(C(=O)NC3CCC(F)(F)CC3)c2[nH]1` [Example 117, N-(4,4-difluorocyclohexyl)-2-(1H-imidazol-1-yl)-8-methyl-7H-purine-6-carboxamide] gave a negative-log IC50 (pIC50) of 7.00 to 8.00.
Molecule `CC(C)(C#N)c1ccc(NC(=O)c2nc(-n3ccnc3)nc3cc[nH]c23)cc1` [Example 118, N-[4-(1-cyano-1-methyl-ethyl)phenyl]-2-imidazol-1-yl-5H-pyrrolo[3,2-d]pyrimidine-4-carboxamide] showed a negative logarithm of the IC50 (pIC50) above 8.00.
Take `O=C(N[C@H]1CC[C@](O)(C(F)(F)F)CC1)c1nc(-n2ccnc2)nc2cc[nH]c12` [Example 120a, N-((1s,4s)-4-hydroxy-4-(trifluoromethyl)cyclohexyl)-2-(1H-imidazol-1-yl)-5H-pyrrolo[3,2-d]pyrimidine-4-carboxamide]: the pIC50 was above 8.00.
`O=C(N[C@H]1CC[C@@](O)(C(F)(F)F)CC1)c1nc(-n2ccnc2)nc2cc[nH]c12` [Example 120b, N-((1r,4r)-4-hydroxy-4-(trifluoromethyl)cyclohexyl)-2-(1H-imidazol-1-yl)-5H-pyrrolo[3,2-d]pyrimidine-4-carboxamide] showed a pIC50 of 7.00 to 8.00.
Take `O=C(N[C@H]1CC[C@H](C(F)(F)F)CC1)c1nc(-n2ccnc2)nc2ccsc12` [Example 121, 2-(1H-imidazol-1-yl)-N-((1r,4r)-4-(trifluoromethyl)cyclohexyl)thieno[3,2-d]pyrimidine-4-carboxamide]: the negative-log IC50 (pIC50) was above 8.00.
`O=C(N[C@H]1CC[C@@H](C(F)(F)F)CC1)c1nc(-n2ccnc2)nc2ccsc12` [Example 122, 2-(1H-imidazol-1-yl)-N-((1s,4s)-4-(trifluoromethyl)cyclohexyl)thieno[3,2-d]pyrimidine-4-carboxamide] showed a pIC50 above 8.00.
For `O=C(N[C@@H]1CCNC[C@@H]1F)c1nc(-n2ccnc2)nc2cc[nH]c12` [Example 123a, N-((3S,4R)-3-fluoropiperidin-4-yl)-2-(1H-imidazol-1-yl)-5H-pyrrolo[3,2-d]pyrimidine-4-carboxamide], the pIC50 is 7.00 to 8.00.
In turn, `O=C(N[C@@H]1CCNC[C@H]1F)c1nc(-n2ccnc2)nc2cc[nH]c12` [Example 123b, N-((3R,4R)-3-fluoropiperidin-4-yl)-2-(1H-imidazol-1-yl)-5H-pyrrolo[3,2-d]pyrimidine-4-carboxamide] had a negative logarithm of the IC50 (pIC50) of 6.00 to 7.00.
`COCCO[C@H]1CCC[C@H](NC(=O)c2nc(-n3ccnc3)nc3cc[nH]c23)C1` [Example 124a, 2-(1H-imidazol-1-yl)-N-((1S,3S)-3-(2-methoxyethoxy)cyclohexyl)-5H-pyrrolo[3,2-d]pyrimidine-4-carboxamide] had a pIC50 of 7.00 to 8.00.
Turning to `COCCO[C@@H]1CCC[C@H](NC(=O)c2nc(-n3ccnc3)nc3cc[nH]c23)C1` [Example 124b, 2-(1H-imidazol-1-yl)-N-((1S,3R)-3-(2-methoxyethoxy)cyclohexyl)-5H-pyrrolo[3,2-d]pyrimidine-4-carboxamide], the negative-log IC50 (pIC50) is 7.00 to 8.00.
Take `C[C@H](O)COC1CCC(NC(=O)c2nc(-n3ccnc3)nc3cc[nH]c23)CC1` (stereo partly drawn) [Example 125b, N-((1R,4r)-4-((S)-2-hydroxypropoxy)cyclohexyl)-2-(1H-imidazol-1-yl)-5H-pyrrolo[3,2-d]pyrimidine-4-carboxamide]: the pIC50 is 7.00 to 8.00.
